Measurements: patent EP2664616A1, “Hydantoin and thiohydantoin derivatives as antiviral drugs” (priority 2012, dated 2013)

What follows are compounds tested on HCV replicon Luc Neo ET (assay: HCV replication inhibition assay (replicon assay, luciferase reporter)). Conditions: Hepatitis C virus; Huh-7 cell lines containing HCV replicon Luc Neo ET; 72 hours with compound; 1 % DMSO; firefly luciferase reporter; concentration that produces 50 % of replication inhibition; read-out: EC50 Replicon LucneoET.
Type: cell-based
Protocol: The compounds according to the present invention were tested for their ability to inhibit HCV replication as follows:
Huh-7 cell lines containing HCV replicon Luc Neo ET (Reblikon) were maintained in DMEM supplemented with 10% SVF, 2 mM glutamine, and 1 X NEAA, 100 U / ml penicillin, and 100 µg / ml streptomycine. Cells were maintained in medium supplemented with 0.5 mg/ml G418, at 37°C and 5% CO2 in a humidified atmosphere. Cells were dissociated at sub confluence with trypsin EDTA 1X.
Replicon Luc Neo ET is bicistronic expression constructs (Lohmann et al, 1999, Science 285, 110-113). In brief, the structural genes of the HCV genome were replaced by heterologous sequences; the gene encoding the neomycin phosphotransferase (NPT) and the internal ribosome entry site (IRES) of the encephalomyocarditis virus (EMCV). The bicistronic construct is therefore composed of the following elements: HCV-IRES nucleotides 1-389 for Luc Neo ET, the NPT gene, the EMCV-IRES directing translation of downstream HCV sequences from NS2 or NS3 up to the authentic 3' end of the genome. HCV Polyprotein of Luc Neo ET replicon harbours the cell culture adaptive mutations E1202G, T1280I, K1846T. G418-resistance is only possible with cells containing high amounts of replicon.
Cells were dissociated the day before addition of compounds and seeded in 96 well-plates at a final concentration of 27 777.77 cells.ml^-1.cm^-2 in 90µl final volume of culture medium per well and were maintained at 37°C and 5% CO2 in a humidified atmosphere for 24 hours. 10 µl of compounds to be tested were added 24 hours after seeding. Final concentration of DMSO was 1 %. Cells were incubated in the presence of compounds for 72 hours after which expression of firefly luciferase reporter gene was quantified. Briefly, culture medium was removed and cells were lysed by addition of 100 µl of lysis buffer containing 125 mM Tris Phosphate ph 7.8, 10 mM EDTA, 5 mM DTT, 50 % glycerol and 5 % Triton. Plates were vortexed 10 min at 1300 rpm. 100µl of luciferin solution 1X were added to each well. Luciferin solution contained 40 mM Tris Phosphate ph 7.8, 0.2 mM EDTA, 67 mM DTT, 2.14 mM MgCl2, 5.4 mM MgSO4, 4.7 x 10^-4 M luciferin, 5.3 x 10^-4 M ATP and 2.7 x 10^-4 M Acetyl co enzyme A. Luminescence was immediately measured with Berthold Microlumat Plus LB 96V luminometer with an integration of 1 sec. Inhibition was calculated using the formula: % inhibition = 1-[(RLUsample-RLUbackground)/(RLUsignal-RLUbackground)].
The Table 1 below illustrates data on the biological activity of compounds of the present invention. Results are expressed as EC50 which is the concentration that produces 50 % of replication inhibition. Table 1. HCV replication inhibition assay

`COc1ccc(NC(=O)CC2C(=O)N(c3ccc(F)cc3)C(=S)N2CCc2ccc(Cl)cc2)nc1` (stereo not shown) [Example 66, 2-{3-[2-(4-chlorophenyl)ethyl]-1-(4-fluorophenyl)-5-oxo-2-sulfanylideneimidazolidin-4-yl}-N-(5-methoxypyridin-2-yl)acetamide] and `COc1ccc(CCCCN2C(=S)N(c3ccc(F)cc3)C(=O)C2CC(=O)Nc2ccc(OC)cn2)cc1` (stereo not shown) [Example 93, 2-[1-(4-fluorophenyl)-3-[4-(4-methoxyphenyl)butyl]-5-oxo-2-sulfanylideneimidazolidin-4-yl]-N-(5-methoxypyridin-2-yl)acetamide] cannot be ordered by EC50: under 0.5 µM for the first, under 0.5 µM for the second.

`COc1ccc(CCN2C(=O)N(c3ccc(F)cc3)C(=O)C2CC(=O)Nc2ccc(OC)nn2)cc1` (stereo not shown) [Example 71, 2-[1-(4-fluorophenyl)-3-[2-(4-methoxyphenyl)ethyl]-2,5-dioxoimidazolidin-4-yl]-N-(6-methoxypyridazin-3-yl)acetamide] and `COc1ccc(CCN2C(=O)N(c3ccc(F)cc3)C(=O)C2CC(=O)Nc2ccc(C)nn2)cc1` (stereo not shown) [Example 74, 2-[1-(4-fluorophenyl)-3-[2-(4-methoxyphenyl)ethyl]-2,5-dioxoimidazolidin-4-yl]-N-(6-methylpyridazin-3-yl)acetamide] cannot be ordered by EC50: under 30 µM for the first, under 30 µM for the second.

`COc1ccc(CCN2C(=O)N(c3ccc(F)cc3)C(=O)C2CC(=O)Nc2ccc(OC)cn2)cc1` (stereo not shown) [Example 72, 2-[1-(4-fluorophenyl)-3-[2-(4-methoxyphenyl)ethyl]-2,5-dioxoimidazolidin-4-yl]-N-(5-methoxypyridin-2-yl)acetamide] and `COc1ccc(CCN2C(=S)N(c3ccc(F)cc3)C(=O)C2CC(=O)Nc2ncc(OC)s2)cc1` (stereo not shown) [Example 88, 2-[1-(4-Fluorophenyl)-3-[2-(4-methoxyphenyl)ethyl]-5-oxo-2-sulfanylideneimidazolidin-4-yl]-N-(5-methoxy-1,3-thiazol-2-yl)acetamide] cannot be ordered by EC50: under 5 µM for the first, under 0.5 µM for the second.

`CN(C)c1ccc(CCN2C(=O)N(c3ccc(F)cc3)C(=O)C2CC(=O)Nc2ccc(N(C)C)cc2)cc1` (stereo not shown) [Example 49, N-[4-(dimethylamino)phenyl]-2-(3-{2-[4-(dimethylamino)phenyl]ethyl}-1-(4-fluorophenyl)-2,5-dioxoimidazolidin-4-yl)acetamide] and `CN(C)c1ccc(NC(=O)CC2C(=O)N(c3ccc(F)cc3)C(=S)N2CCc2cccs2)cc1` (stereo not shown) [Example 48, N-[4-(dimethylamino)phenyl]-2-[1-(4-fluorophenyl)-5-oxo-2-sulfanylidene-3-[2-(thiophen-2-yl)ethyl]imidazolidin-4-yl]acetamide] cannot be ordered by EC50: under 0.5 µM for the first, under 0.5 µM for the second.

`COc1ccc(CCN2C(=S)N(c3ccccc3)C(=O)C2CC(=O)Nc2ccc(OC)nn2)cc1` (stereo not shown) [Example 69, 2-{3-[2-(4-methoxyphenyl)ethyl]-5-oxo-1-phenyl-2-sulfanylideneimidazolidin-4-yl}-N-(6-methoxypyridazin-3-yl)acetamide] and `COc1ccc(NC(=O)CC2C(=O)N(c3ccccc3)C(=S)N2CCc2ccc(Cl)cc2)cn1` (stereo not shown) [Example 59, 2-{3-[2-(4-chlorophenyl)ethyl]-5-oxo-1-phenyl-2-sulfanylideneimidazolidin-4-yl}-N-(6-methoxypyridin-3-yl)acetamide] cannot be ordered by EC50: under 5 µM for the first, under 5 µM for the second.

`COc1ccc(CCN2C(=S)N(c3ccc(F)cc3)C(=O)C2CC(=O)Nc2ccc(N3CCCC3=O)cc2)cc1` (stereo not shown) [Example 87, 2-[1-(4-fluorophenyl)-3-[2-(4-methoxyphenyl)ethyl]-5-oxo-2-sulfanylideneimidazolidin-4-yl]-N-[4-(2-oxopyrrolidin-1-yl)phenyl]acetamide] and `COc1ccc(CCN2C(=S)N(c3ccc(F)cc3)C(=O)C2CC(=O)Nc2ccc(O)cc2)cc1` (stereo not shown) [Example 91, 2-[1-(4-fluorophenyl)-3-[2-(4-methoxyphenyl)ethyl]-5-oxo-2-sulfanylideneimidazolidin-4-yl]-N-(4-hydroxyphenyl)acetamide] cannot be ordered by EC50: under 5 µM for the first, under 0.5 µM for the second.

`COc1ccc(CCN2C(=S)N(c3ccncc3)C(=O)C2CC(=O)Nc2ccc(OC)cc2)cc1` (stereo not shown) [Example 55, N-(4-methoxyphenyl)-2-{3-[2-(4-methoxyphenyl)ethyl]-5-oxo-1-(pyridin-4-yl)-2-sulfanylideneimidazolidin-4-yl}acetamide] and `COc1ccc(CCN2C(=S)N(c3ccc(F)cc3)C(=O)C2CC(=O)Nc2ccc(OC(C)C)cc2)cc1` (stereo not shown) [Example 54, 2-[1-(4-fluorophenyl)-3-[2-(4-methoxyphenyl)ethyl]-5-oxo-2-sulfanylideneimidazolidin-4-yl]-N-[4-(propan-2-yloxy)phenyl]acetamide] cannot be ordered by EC50: under 5 µM for the first, under 0.5 µM for the second.

`O=C(CC1C(=O)N(c2ccc(F)cc2)C(=S)N1CCc1ccc(Cl)cc1)Nc1ccc(N2CCOCC2)cc1` (stereo not shown) [Example 41, 2-{3-[2-(4-chlorophenyl)ethyl]-1-(4-fluorophenyl)-5-oxo-2-sulfanylideneimidazolidin-4-yl}-N-[4-(morpholin-4-yl)phenyl]acetamide] and `NC(=O)c1ccc(NC(=O)CC2C(=O)N(c3ccccc3)C(=S)N2CCc2ccc(Cl)cc2)cc1` (stereo not shown) [Example 40, 4-(2-{3-[2-(4-chlorophenyl)ethyl)-5-oxo-1-phenyl-2-sulfanylideneimidazolidin-4-yl}acetamido)benzamide] cannot be ordered by EC50: under 0.5 µM for the first, under 5 µM for the second.

`COc1ncc(NC(=O)CC2C(=O)N(c3ccc(F)cc3)C(=S)N2CCc2ccc(N(C)C)cc2)cn1` (stereo not shown) [Example 79, 2-(3-{2-[4-(dimethylamino)phenyl]ethyl}-1-(4-fluorophenyl)-5-oxo-2-sulfanylideneimidazolidin-4-yl)-N-(2-methoxypyrimidin-5-yl)acetamide] and `COc1ccc(NC(=O)CC2C(=O)N(c3ccc(F)cc3)C(=S)N2CCc2cccs2)cc1` (stereo not shown) [Example 46, 2-[1-(4-fluorophenyl)-5-oxo-2-sulfanylidene-3-[2-(thiophen-2-yl)ethyl]imidazolidin-4-yl]-N-(4-methoxyphenyl)acetamide] cannot be ordered by EC50: under 5 µM for the first, under 0.5 µM for the second.

Same assay, conditions: Huh-7 cell lines containing HCV replicon Luc Neo ET; 72 hours with compound; 1 % DMSO; firefly luciferase reporter; concentration that produces 50 % of replication inhibition

For `COc1ccc(/C=C\N2C(=S)N(c3ccc(F)cc3)C(=O)C2CC(=O)Nc2ccc(OC)cn2)cc1` (stereo not shown) [Example 89, 2-[1-(4-Fluorophenyl)-3-[(Z)-2-(4-methoxyphenyl)ethenyl]-5-oxo-2-sulfanylideneimidazolidin-4-yl]-N-(5-methoxypyridin-2-yl)acetamide], the “EC50 Replicon LucneoET” value was “Non Active”.

Same assay, conditions: Huh-7 cell lines containing HCV replicon Luc Neo ET; 72 hours with compound; 1 % DMSO; firefly luciferase reporter; concentration that produces 50 % of replication inhibition; read-out: EC50 Replicon LucneoET

`COCCCN1C(=S)N(c2ccc(F)cc2)C(=O)C1CC(=O)Nc1ccc(OC)cc1` (stereo not shown) [Example 27] and “2-{3-[2-(4-chlorophenyl)ethyl]-1-(4-fluorophenyl)-5-oxo-2-sulfanylideneimidazolidin-4-yl}-N-(5-methoxypyridin-2-yl)acetamide [Example 67]” cannot be ordered by EC50: under 30 µM for the first, under 5 µM for the second.

`COc1ccc(CCN2C(=S)N(c3ccccc3)C(=O)C2CC(=O)Nc2ccc(OC)cc2)cc1` (stereo not shown) [Example 3] and “2-{3-[2-(4-chlorophenyl)ethyl]-5-oxo-1-phenyl-2-sulfanylideneimidazolidin-4-yl}-N-(pyridin-3-ylmethyl)acetamide [Example 56]” cannot be ordered by EC50: under 0.5 µM for the first, under 5 µM for the second.

`COc1ccc(NC(=O)CC2C(=O)N(c3ccccc3)C(=S)N2CCc2ccc(OC)c(OC)c2)cc1` (stereo not shown) [Example 4] and `CCOc1ccc(NC(=O)CC2C(=O)N(c3cccc(C(F)(F)F)c3)C(=S)N2CCc2ccccc2F)cc1` (stereo not shown) [Example 19] cannot be ordered by EC50: under 5 µM for the first, under 5 µM for the second.

`CCCOc1ccc(NC(=O)CC2C(=O)N(c3ccccc3)C(=S)N2CCCN2CCN(Cc3ccccc3)CC2)cc1` (stereo not shown) [Example 10] and `COc1ccc(NC(=O)CC2C(=O)N(c3ccc(C)cc3)C(=S)N2CCc2ccccc2)cc1` (stereo not shown) [Example 26] cannot be ordered by EC50: under 5 µM for the first, under 5 µM for the second.

`O=C(CC1C(=O)N(c2ccc(F)cc2)C(=S)N1CCc1ccc(Cl)cc1)Nc1ccccc1` (stereo not shown) [Example 8] and `O=C(CC1C(=O)N(c2ccccc2)C(=S)N1CCc1ccc(Cl)cc1)Nc1ccc(Cl)cc1` (stereo not shown) [Example 24] cannot be ordered by EC50: under 0.5 µM for the first, under 5 µM for the second.

`Cc1ccsc1CCN1C(=S)N(c2ccccc2)C(=O)C1CC(=O)Nc1ccc(F)cc1` (stereo not shown) [Example 23] and `COc1ccc2[nH]cc(CCN3C(=S)N(c4ccccc4)C(=O)C3CC(=O)Nc3ccccc3)c2c1` (stereo not shown) [Example 17] cannot be ordered by EC50: under 5 µM for the first, under 5 µM for the second.
